Experimental data: ChEMBL document CHEMBL4725331, “An investigative study of antitumor properties of a novel thiazolo[4,5-d]pyrimidine small molecule revealing superior antitumor activity with CDK1 selectivity and potent pro-apoptotic properties” (Bioorg Med Chem, 2020)

What was measured:
PC-3 [1] = experiment: Antiproliferative activity against human PC-3 cells assessed as inhibition of cell growth at 10 uM measured after 48 hrs by SRB assay relative to control; assay type: functional
WI-38 [2] = experiment: Induction of apoptosis in human WI-38 cells assessed as early apoptotic cells at IC50 incubated for 48 hrs by annexin-V FITC and propidium iodide staining based flow cytometry analysis (reference value: 0.39 %); assay type: cell-based; details: wi-38, 48 h
HCT-116 [3] = experiment: Induction of apoptosis in human HCT-116 cells assessed as early apoptotic cells at IC50 incubated for 48 hrs by annexin-V FITC and propidium iodide staining based flow cytometry analysis (reference value: 1.67 %); assay type: functional
HCT-15 = experiment: Antiproliferative activity against human HCT-15 cells assessed as inhibition of cell growth at 10 uM measured after 48 hrs by SRB assay relative to control; assay type: functional
KM12 = experiment: Antiproliferative activity against human KM12 cells assessed as inhibition of cell growth at 10 uM measured after 48 hrs by SRB assay relative to control; assay type: functional
NCI-H322M = experiment: Antiproliferative activity against human NCI-H322M cells assessed as inhibition of cell growth at 10 uM measured after 48 hrs by SRB assay relative to control; assay type: functional
SK-MEL-28 = experiment: Antiproliferative activity against human SK-MEL-28 cells assessed as inhibition of cell growth measured after 48 hrs by SRB assay; assay type: functional
PC-3 [4] = experiment: Antiproliferative activity against human PC-3 cells assessed as inhibition of cell growth measured after 48 hrs by SRB assay; assay type: functional
NCI-H226 = experiment: Antiproliferative activity against human NCI-H226 cells assessed as inhibition of cell growth measured after 48 hrs by SRB assay; assay type: functional
786-0 = experiment: Antiproliferative activity against human 786-0 cells assessed as inhibition of cell growth at 10 uM measured after 48 hrs by SRB assay relative to control; assay type: functional
MOLT-4 = experiment: Antiproliferative activity against human MOLT-4 cells assessed as inhibition of cell growth measured after 48 hrs by SRB assay; assay type: functional
CCRF-CEM = experiment: Antiproliferative activity against human CCRF-CEM cells assessed as inhibition of cell growth measured after 48 hrs by SRB assay; assay type: functional
COLO 205 = experiment: Antiproliferative activity against human COLO 205 cells assessed as inhibition of cell growth measured after 48 hrs by SRB assay; assay type: functional
HOP-92 = experiment: Antiproliferative activity against human HOP-92 cells assessed as inhibition of cell growth at 10 uM measured after 48 hrs by SRB assay relative to control; assay type: functional
UACC-62 = experiment: Antiproliferative activity against human UACC-62 cells assessed as inhibition of cell growth measured after 48 hrs by SRB assay; assay type: functional
OVCAR-8 = experiment: Antiproliferative activity against human OVCAR-8 cells assessed as inhibition of cell growth at 10 uM measured after 48 hrs by SRB assay relative to control; assay type: functional
HCT-116 [5] = experiment: Induction of apoptosis in human HCT-116 cells assessed as necrotic cells at IC50 incubated for 48 hrs by annexin-V FITC and propidium iodide staining based flow cytometry analysis (reference value: 0.51 %); assay type: functional
CAKI-1 = experiment: Antiproliferative activity against human CAKI-1 cells assessed as inhibition of cell growth measured after 48 hrs by SRB assay; assay type: functional
M14 = experiment: Antiproliferative activity against human M14 cells assessed as inhibition of cell growth measured after 48 hrs by SRB assay; assay type: functional
Hs-578T = experiment: Antiproliferative activity against human Hs-578T cells assessed as inhibition of cell growth measured after 48 hrs by SRB assay; assay type: functional
SW-620 = experiment: Antiproliferative activity against human SW-620 cells assessed as inhibition of cell growth measured after 48 hrs by SRB assay; assay type: functional
HCT-116 [6] = experiment: Cell cycle arrest in human HCT-116 cells assessed as accumulation in S phase phase at IC50 concentration incubated for 48 hrs by propidium iodide staining based flow cytometry analysis (reference value: 41.34 %); assay type: functional
EKVX = experiment: Antiproliferative activity against human EKVX cells assessed as inhibition of cell growth measured after 48 hrs by SRB assay; assay type: functional
HCT-116 [7] = experiment: Induction of apoptosis in human HCT116 cells assessed as decrease in Bcl2 gene expression by RT-PCR analysis relative to untreated control; assay type: functional
WI-38 [8] = experiment: Cell cycle arrest in human WI-38 cells assessed as accumulation in S phase phase at IC50 concentration incubated for 48 hrs by propidium iodide staining based flow cytometry analysis (reference value: 33.8 %); details: wi-38, 48 h
HCT-116 [9] = experiment: Cell cycle arrest in human HCT-116 cells assessed as accumulation in sub-G phase at IC50 concentration incubated for 48 hrs by propidium iodide staining based flow cytometry analysis (reference value: 2.4 %); assay type: functional
NCI-H23 = experiment: Antiproliferative activity against human NCI-H23 cells assessed as inhibition of cell growth measured after 48 hrs by SRB assay; assay type: functional
SK-MEL-5 = experiment: Antiproliferative activity against human SK-MEL-5 cells assessed as inhibition of cell growth at 10 uM measured after 48 hrs by SRB assay relative to control; assay type: functional
NCI/ADR-RES = experiment: Antiproliferative activity against human NCI/ADR-RES cells assessed as inhibition of cell growth at 10 uM measured after 48 hrs by SRB assay relative to control; assay type: functional
RPMI-8226 = experiment: Antiproliferative activity against human RPMI-8226 cells assessed as inhibition of cell growth at 10 uM measured after 48 hrs by SRB assay relative to control; assay type: functional
HT-29 = experiment: Antiproliferative activity against human HT-29 cells assessed as inhibition of cell growth measured after 48 hrs by SRB assay; assay type: functional
WI-38 [10] = experiment: Cell cycle arrest in human WI-38 cells assessed as accumulation in G2/M phase phase at IC50 concentration incubated for 48 hrs by propidium iodide staining based flow cytometry analysis (reference value: 7.16 %); details: wi-38, 48 h
HCT-116 [11] = experiment: Induction of apoptosis in human HCT116 cells assessed as up regulation of caspase-9 expression by RT-PCR analysis relative to untreated control; assay type: functional
[12] = read-out: LC50 (the source's name)

`COc1ccc(-n2c(=S)sc3c(Cl)nc(C)nc32)c(OC)c1` was tested, and the inhibition at 10 µM (PC-3 [1]) was over 50%, the Activity (WI-38 [2]) was 3.59% and the Activity (HCT-116 [3]) was 5.38%. The inhibition at 10 µM (HCT-15) was over 50%, the inhibition at 10 µM (KM12) was over 50% and the inhibition at 10 µM (NCI-H322M) was over 50%. It also gave a GI50 (SK-MEL-28) of 2.19 µM, a TGI (SK-MEL-28) of 4.57 µM and a CC50 (SK-MEL-28; [12]) of 9.77 µM. It also gave a GI50 (PC-3 [4]) of 2.4 µM, a TGI (PC-3 [4]) of 5.89 µM and a CC50 (PC-3 [4]; [12]) of 22.9 µM. For the same compound, the GI50 (NCI-H226) was 3.24 µM, the TGI (NCI-H226) was 12 µM and the CC50 (NCI-H226; [12]) was 44.7 µM. The inhibition at 10 µM (786-0) was over 50%, the GI50 (MOLT-4) was 2.14 µM and the TGI (MOLT-4) was 5.5 µM. For the same compound, the CC50 (MOLT-4; [12]) was over 100 µM, the GI50 (CCRF-CEM) was 2.69 µM and the TGI (CCRF-CEM) was 7.41 µM. For the same compound, the CC50 (CCRF-CEM; [12]) was over 100 µM, the GI50 (COLO 205) was 3.8 µM and the TGI (COLO 205) was 13.2 µM. It also gave a CC50 (COLO 205; [12]) of 47.9 µM, an inhibition at 10 µM (HOP-92) of over 50% and a GI50 (UACC-62) of 2.04 µM. The TGI (UACC-62) was 4.68 µM, the CC50 (UACC-62; [12]) was 12 µM and the inhibition at 10 µM (OVCAR-8) was over 50%. The Activity (HCT-116 [5]) was 3.31%, the GI50 (CAKI-1) was 6.17 µM and the TGI (CAKI-1) was 19.5 µM. It also gave a CC50 (CAKI-1; [12]) of 45.7 µM, a GI50 (M14) of 1.86 µM and a TGI (M14) of 4.07 µM. It also gave a CC50 (M14; [12]) of 8.91 µM, a GI50 (Hs-578T) of 2.63 µM and a TGI (Hs-578T) of 7.76 µM. It also gave a CC50 (Hs-578T; [12]) of over 100 µM, a GI50 (SW-620) of 2.57 µM and a TGI (SW-620) of 5.5 µM. It also gave a CC50 (SW-620; [12]) of 28.8 µM, an Activity (HCT-116 [6]) of 30.1% and a GI50 (EKVX) of 4.57 µM. The TGI (EKVX) was 17 µM, the CC50 (EKVX; [12]) was 43.6 µM and the “fold change (FC)” value (HCT-116 [7]) was 3.64. For the same compound, the Activity (WI-38 [8]) was 26.39%, the Activity (HCT-116 [9]) was 17.67% and the GI50 (NCI-H23) was 2.45 µM. For the same compound, the TGI (NCI-H23) was 5.89 µM, the CC50 (NCI-H23; [12]) was 57.5 µM and the inhibition at 10 µM (SK-MEL-5) was over 50%. The inhibition at 10 µM (NCI/ADR-RES) was over 50%, the inhibition at 10 µM (RPMI-8226) was over 50% and the GI50 (HT-29) was 2.4 µM. The TGI (HT-29) was 6.31 µM, the CC50 (HT-29; [12]) was 57.5 µM and the Activity (WI-38 [10]) was 12.27%. For the same compound, the “fold change (FC)” value (HCT-116 [11]) was 15.9.
